Read-outs that look alike come from different tables or passages of the source.
Target: PKC delta kinase (Homo sapiens, UniProt Q05655)
Assay: PKC Delta coupled-enzyme kinase assay
Assay type: biochemical
Description: An assay buffer solution was prepared which consisted of 100 mM HEPES (pH 7.5), 10 mM MgCl2, 25 mM NaCl, 0.1 mM EDTA and 0.01% Brij. […] To 16 μL of this enzyme buffer, in a 384 well plate, was added 1 μL of VRT stock solution in DMSO. The mixture was allowed to equilibrate for 10 mins at 30° C. […] Ki values were calculated from initial rate data by non-linear regression using the Prism software package (Prism 4.0a, Graphpad Software, San Diego, Calif.).

[1] = 46 nM PKC delta, 150 μM ATP, 30° C., read-out: Ki PKC delta

PKC delta kinase, sequence (Q05655 whole entry): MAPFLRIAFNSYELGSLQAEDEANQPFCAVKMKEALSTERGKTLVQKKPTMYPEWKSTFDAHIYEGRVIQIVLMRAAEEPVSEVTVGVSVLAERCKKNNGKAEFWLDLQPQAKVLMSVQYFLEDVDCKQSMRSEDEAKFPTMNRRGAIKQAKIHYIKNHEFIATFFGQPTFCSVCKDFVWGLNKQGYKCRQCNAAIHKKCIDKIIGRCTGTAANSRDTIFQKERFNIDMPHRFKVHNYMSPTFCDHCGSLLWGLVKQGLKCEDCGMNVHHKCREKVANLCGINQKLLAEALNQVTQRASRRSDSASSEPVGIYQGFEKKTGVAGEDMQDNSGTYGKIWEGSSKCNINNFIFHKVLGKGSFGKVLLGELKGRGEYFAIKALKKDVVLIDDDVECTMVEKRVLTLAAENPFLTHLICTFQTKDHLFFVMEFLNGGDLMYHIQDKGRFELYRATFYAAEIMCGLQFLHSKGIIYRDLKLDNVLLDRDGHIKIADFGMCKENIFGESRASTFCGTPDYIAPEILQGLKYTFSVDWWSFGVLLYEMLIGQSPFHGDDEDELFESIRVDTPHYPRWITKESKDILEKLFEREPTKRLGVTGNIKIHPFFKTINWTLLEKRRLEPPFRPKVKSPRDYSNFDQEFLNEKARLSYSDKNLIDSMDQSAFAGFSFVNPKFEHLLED

| Structure (SMILES) | Ki [1] | Ki |
| --- | --- | --- |
| Nc1ncccc1C(=O)c1cccc(N2CCN3CCCC3C2)n1 (single isomer, unassigned) [compound 211] | 50 to 500 nM |  |
| Nc1ncccc1C(=O)c1cccc(N2CCCN(C(=O)CCC(F)(F)F)CC2)n1 [compound 31] | 500 to 2800 nM |  |
| Nc1ncccc1C(=O)c1cccc(N2CCCN(C(=O)Cc3ccccc3)CC2)n1 [compound 33] | 50 to 500 nM |  |
| CC(C)C(=O)N1CCCN(c2cccc(C(=O)c3cccnc3N)n2)CC1 [compound 34] | 500 to 2800 nM |  |
| Nc1ncccc1C(=O)c1cccc(N2CCCN(C(=O)CC3CC3)CC2)n1 [compound 35] | > 2800 nM |  |
| CC(C)(C)C(=O)N1CCCN(c2cccc(C(=O)c3cccnc3N)n2)CC1 [compound 37] | 500 to 2800 nM |  |
| CC(C)(C)CCN1CCCN(c2cccc(C(=O)c3cccnc3N)n2)CC1 [compound 44] | > 2800 nM |  |
| Nc1ncc(-c2cccnc2)cc1C(=O)c1cccc(N2CCCNCC2)n1 [compound 58] | 50 to 500 nM |  |
| Nc1ncc(Br)cc1C(=O)c1ncc(C(=O)NCc2ccccc2)s1 [compound 62] | 50 to 500 nM |  |
| Nc1ncccc1C(=O)c1cccc(N2CCC(N)CC2)n1 [compound 86] |  | 50 to 500 nM |
| Nc1ncc(Br)cc1C(=O)c1cccc(N2CCCN(CCO)CC2)n1 [compound 98] | 50 to 500 nM |  |
| CC(C)N1CCN(c2cccc(C(=O)c3cc(Br)cnc3N)n2)CC1 [compound 100] | 50 to 500 nM |  |
| Nc1ncccc1C(=O)c1nc(N2CCCNCC2)cs1 [compound 102] | 50 to 500 nM |  |
| Nc1ncc(Br)cc1C(=O)c1cncc(N2CCCNCC2)n1 [compound 149] | 50 to 500 nM |  |
| Nc1ncc(Br)cc1C(=O)c1cccc(N2CCCN(C(=O)c3ccccc3C(F)(F)F)CC2)n1 [compound 150] | 50 to 500 nM |  |
| Nc1ncc(Br)cc1C(=O)c1cccc(N2CCCN(C(=O)c3ccccc3Cl)CC2)n1 [compound 151] | 500 to 2800 nM |  |
| C=Cc1cnc(N)c(C(=O)c2cccc(N3CCCN(C)CC3)n2)c1 [compound 152] | 50 to 500 nM |  |
| CCc1cnc(N)c(C(=O)c2cccc(N3CCCN(C)CC3)n2)c1 [compound 153] | 500 to 2800 nM |  |
| Nc1ncc(C2CC2)cc1C(=O)c1cccc(N2CCCNCC2)n1 [compound 154] | 50 to 500 nM |  |
| Cc1cnc(N)c(C(=O)c2cccc(N3CCCNCC3)n2)c1 [compound 155, (6-(1,4-diazepan-1-yl)pyridin-2-yl)(2-amino-5-methylpyridin-3-yl)methanone bis(2,2,2-trifluoroacetate)] | 500 to 2800 nM |  |
| CN1CCCN(c2cncc(C(=O)c3cc(Br)cnc3N)n2)CC1 [compound 156] | 50 to 500 nM |  |
| CN1CCCN(c2csc(C(=O)c3cc(Br)cnc3N)n2)CC1 [compound 163] | 50 to 500 nM |  |
| C=Cc1cnc(N)c(C(=O)c2cncc(N3CCCNCC3)n2)c1 [compound 165] | 50 to 500 nM |  |

| Structure (SMILES) | Ki [1] | Ki |
| --- | --- | --- |
| COc1cccc(-c2cnc(N)c(C(=O)c3cccc(N4CCCNCC4)n3)c2)c1 [compound 181] | 50 to 500 nM |  |
| Nc1ncc(-c2ccc[nH]2)cc1C(=O)c1cccc(N2CCCNCC2)n1 [compound 183] | 50 to 500 nM |  |
| COc1ccc(-c2cnc(N)c(C(=O)c3cccc(N4CCCNCC4)n3)c2)cc1 [compound 186] | 50 to 500 nM |  |
| Nc1ncc(Br)cc1C(=O)c1cccc(N2CCNCC2)n1 [compound 195] | 50 to 500 nM |  |
| Nc1ncc(-c2cc[nH]c2)cc1C(=O)c1cccc(N2CCCNCC2)n1 [compound 199] | 50 to 500 nM |  |
| C[C@H]1CN(c2cccc(C(=O)c3cccnc3N)n2)[C@@H](C)CN1 [compound 218] | 50 to 500 nM |  |
| CC(C)C[C@H]1CN(c2cccc(C(=O)c3cccnc3N)n2)CCN1C(=O)CC(F)(F)F [compound 219] | > 2800 nM |  |
| CC1CN(c2cccc(C(=O)c3cccnc3N)n2)C(C)CN1 (stereo not shown) [compound 222] | 50 to 500 nM |  |
| CC(C)(C)[C@H]1CN(c2cccc(C(=O)c3cccnc3N)n2)CCN1 [compound 225] |  | 50 to 500 nM |
| CC1(C)CN(c2cccc(C(=O)c3cccnc3N)n2)CCN1 [compound 226] |  | 50 to 500 nM |
| C[C@H]1CNCCN1c1cccc(C(=O)c2cccnc2N)n1 [compound 228] | 50 to 500 nM |  |
| CC(C)[C@@H]1CN(c2cccc(C(=O)c3cccnc3N)n2)CCN1 [compound 231] |  | 500 to 2800 nM |
| CC(C)C[C@H]1CN(c2cccc(C(=O)c3cc(Br)cnc3N)n2)CCN1 [compound 232] | 50 to 500 nM |  |
| C=Cc1cnc(N)c(C(=O)c2cccc(N3CCN[C@@H](CC(C)C)C3)n2)c1 [compound 233] | 50 to 500 nM |  |
| CC(C)[C@@H]1CNCCN1c1cccc(C(=O)c2cccnc2N)n1 [compound 237] | 50 to 500 nM |  |
| Cc1cc(C)c(CC2CN(c3cccc(C(=O)c4cccnc4N)n3)CCN2)c(C)c1 (stereo not shown) [compound 244] | > 2800 nM |  |
| Nc1ncc(Cl)cc1C(=O)c1cccc(N2CCCNCC2)n1 [compound 245] | 50 to 500 nM |  |
| Cc1sc(N2CCNC[C@H]2C)nc1C(=O)c1cccnc1N [compound 247] | 500 to 2800 nM |  |
| N#CC1(c2cccc(C(=O)c3cccnc3N)n2)CCNCC1 [compound 280] | 50 to 500 nM |  |
| CN(C)c1cccc(-c2cccc(C(=O)c3cccnc3N)n2)c1 [compound 293] | > 2800 nM |  |
| Nc1ncccc1C(=O)c1cccc(-c2c[nH]c3ccccc23)n1 [compound 294] | > 2800 nM |  |
| N#Cc1cnc(N)c(C(=O)c2cccc(N3CCCNCC3)n2)c1 [compound 302] | 500 to 2800 nM |  |
| CC1(N)CCN(c2cccc(C(=O)c3cccnc3N)n2)CC1 [compound 305] | 50 to 500 nM |  |

Results, then the compound that gave them:

| Ki [1] | Ki | Structure (SMILES) |
| --- | --- | --- |
| 500 to 2800 nM |  | Cc1ccccc1-c1cnc(N)c(C(=O)c2cccc(N3CCCNCC3)n2)c1 [compound 57] |
| 50 to 500 nM |  | Cc1ccc(-c2cnc(N)c(C(=O)c3cccc(N4CCCNCC4)n3)c2)cc1 [compound 59] |
| 50 to 500 nM |  | Nc1ncc(/C=C/c2ccccc2)cc1C(=O)c1cccc(N2CCCNCC2)n1 [compound 167] |
| 50 to 500 nM |  | Nc1cccc(-c2cnc(N)c(C(=O)c3cccc(N4CCCNCC4)n3)c2)c1 [compound 169] |
| 50 to 500 nM |  | Nc1ccc(-c2cnc(N)c(C(=O)c3cccc(N4CCCNCC4)n3)c2)cc1 [compound 170] |
| 50 to 500 nM |  | Nc1ncc(-c2ccc(O)cc2)cc1C(=O)c1cccc(N2CCCNCC2)n1 [compound 171] |
| 50 to 500 nM |  | Nc1ncc(-c2cccc(O)c2)cc1C(=O)c1cccc(N2CCCNCC2)n1 [compound 172] |
| 50 to 500 nM |  | Cc1cccc(-c2cnc(N)c(C(=O)c3cccc(N4CCCNCC4)n3)c2)c1 [compound 182] |
| 50 to 500 nM |  | Nc1ncc(-c2csc3ccccc23)cc1C(=O)c1cccc(N2CCCNCC2)n1 [compound 200] |
| 50 to 500 nM |  | Nc1ncc(-c2ccsc2)cc1C(=O)c1cccc(N2CCCNCC2)n1 [compound 201] |
| 50 to 500 nM |  | Nc1ncc(-c2ccccc2)cc1C(=O)c1cccc(N2CCNCC2)n1 [compound 206] |
| 500 to 2800 nM |  | CC(C)C[C@H]1CN(c2cccc(C(=O)c3cc(-c4ccccc4)cnc3N)n2)CCN1 [compound 239] |
| 50 to 500 nM |  | Nc1ncccc1C(=O)c1cccc(N2CCNC(c3cccnc3)C2)n1 (stereo not shown) [compound 249] |
| 50 to 500 nM |  | Cc1ccc(N2CCNC(c3ccccc3)C2)nc1C(=O)c1cccnc1N (stereo not shown) [compound 252] |
| 500 to 2800 nM |  | Cc1sc(N2CCNC(c3ccccc3)C2)nc1C(=O)c1cccnc1N (stereo not shown) [compound 256] |
| 50 to 500 nM |  | Nc1ncccc1C(=O)c1cccc(N2CCNC(c3ccccc3Cl)C2)n1 (stereo not shown) [compound 258] |
| 50 to 500 nM |  | Nc1ncc(-c2cccc(O)c2)cc1C(=O)c1cccc(N2CCNC(c3ccccc3)C2)n1 (stereo not shown) [compound 260] |
| 500 to 2800 nM |  | Nc1ncc(-c2ccccc2)cc1C(=O)c1cccc(N2CCNC(c3ccccc3)C2)n1 (stereo not shown) [compound 262] |

| Ki [1] | Ki | Structure (SMILES) |
| --- | --- | --- |
| 50 to 500 nM |  | Nc1ncc(-c2cccs2)cc1C(=O)c1cccc(N2CCNC(c3ccccc3)C2)n1 (stereo not shown) [compound 263] |
| 500 to 2800 nM |  | Nc1ncc(-c2ccsc2)cc1C(=O)c1cccc(N2CCNC(c3ccccc3)C2)n1 (stereo not shown) [compound 264] |
| 500 to 2800 nM |  | Nc1ncc(-c2cc3ccccc3s2)cc1C(=O)c1cccc(N2CCNC(c3ccccc3)C2)n1 (stereo not shown) [compound 265] |
| 500 to 2800 nM |  | Nc1ncc(-c2csc3ccccc23)cc1C(=O)c1cccc(N2CCNC(c3ccccc3)C2)n1 (stereo not shown) [compound 266] |
| 50 to 500 nM |  | Nc1ncc(-c2c[nH]c3ccccc23)cc1C(=O)c1cccc(N2CCNC(c3ccccc3)C2)n1 (stereo not shown) [compound 268] |
| 50 to 500 nM |  | N#Cc1ccccc1-c1cnc(N)c(C(=O)c2cccc(N3CCNC(c4ccccc4)C3)n2)c1 (stereo not shown) [compound 269] |
| 50 to 500 nM |  | N#Cc1cccc(-c2cnc(N)c(C(=O)c3cccc(N4CCNC(c5ccccc5)C4)n3)c2)c1 (stereo not shown) [compound 270] |
| 50 to 500 nM |  | N#Cc1ccc(-c2cnc(N)c(C(=O)c3cccc(N4CCNC(c5ccccc5)C4)n3)c2)cc1 (stereo not shown) [compound 271] |
| 50 to 500 nM |  | Nc1ncc(-c2ccc(CO)cc2)cc1C(=O)c1cccc(N2CCNC(c3ccccc3)C2)n1 (stereo not shown) [compound 282] |
| 50 to 500 nM |  | Nc1ncc(-c2cccc(CO)c2)cc1C(=O)c1cccc(N2CCNC(c3ccccc3)C2)n1 (stereo not shown) [compound 283] |
| 50 to 500 nM |  | COc1ccccc1-c1cnc(N)c(C(=O)c2cccc(N3CCNC(c4ccccc4)C3)n2)c1 (stereo not shown) [compound 284] |
| 50 to 500 nM |  | COc1cccc(-c2cnc(N)c(C(=O)c3cccc(N4CCNC(c5ccccc5)C4)n3)c2)c1 (stereo not shown) [compound 286] |
| 500 to 2800 nM |  | Nc1ncc(-c2ccncc2)cc1C(=O)c1cccc(N2CCNC(c3ccccc3)C2)n1 (stereo not shown) [compound 288] |
| 50 to 500 nM |  | Nc1ncc(-c2cc[nH]c2)cc1C(=O)c1cccc(N2CCNC(c3ccccc3)C2)n1 (stereo not shown) [compound 289] |
| 50 to 500 nM |  | Nc1ncc(/C=C/c2ccccc2)cc1C(=O)c1cccc(N2CCNC(c3ccccc3)C2)n1 (stereo not shown) [compound 290] |
| 50 to 500 nM |  | Nc1ncccc1C(=O)c1cccc(N2CCNC(c3ccc(F)cc3)C2)n1 (stereo not shown) [compound 295] |
| 50 to 500 nM |  | COc1ccccc1C1CN(c2cccc(C(=O)c3cccnc3N)n2)CCN1 (stereo not shown) [compound 296] |
| 500 to 2800 nM |  | COc1cccc(C2CN(c3cccc(C(=O)c4cccnc4N)n3)CCN2)c1 (stereo not shown) [compound 309] |

From patent US20110077237A1, “KINASE INHIBITORS” (VERTEX PHARMACEUTICALS INCORPORATED, priority 2007, published 2011)
